In patent EP0108147B1, “Use of a protoberberine alkaloid and composition containing same” (MAROKO, Peter R., priority 1982, dated 1983):
Read-outs that look alike come from different tables or passages of the source.

Columns and labels:
in vivo = assay: in vivo; set-up: species or system rats; conditions: rat
Method: Preferential concentration of berberine in the heart rather than in other thoracic organs or the liver is a sine qua non for a good imaging agent. Berberine level measurements were done spectrophotometrically. The experiment consisted of injecting 3.5 mg/Kg of berberine ([…]) intravenously and killing the rats after 15 minutes, 90 minutes, 6 hours, 24 hours, 48 hours and 1 week. Each group consisted of 5-6 rats. A control group (no berberine administration) was used to determine the absorbance of the different organs at that wave length. […] It was released rapidly from the heart thus showing no significant tendency to accumulate in that organ. Its concentrate was 1, 1 and 3 pg/g in the lungs and 0.2 and 0 in the skeletal muscles or in the blood at the same time intervals.

dogs = assay: Myocardial oxygen consumption (MV02) and epicardial ST segment elevation experiments; type: in vivo
From the text: These changes were due to lower. myocardial oxygen consumption during the occlusion with berberine treatment. […] This is quite an advanageous therapeutic combination of properties which further distinguish the compounds used in the invention from the conventional drugs.

[1] = test system: healthy adult mongrel dogs; assay: Protocol M: hemodynamics in anesthetized open-chest dogs, systolic arterial pressure held constant; type: in vivo
[2] = test system: closed-chest anesthetized dogs; conditions: for rise of diastolic pressure: only digitalis
Method: A study was carried out to examine the effects of the simultaneous administration of berberine on digitalis (i.e. ouabain) produced arrhythmias.
The experiments were conducted in closed-chest anesthetized dogs which were randomized to three groups. All received ouabain 0.03 mg/Kg as a bolus intravenously and thereafter a continuous infusion with a constant rate of 0.0006 mg/Kg/min until death. […] The second group received simultaneously berberine 1 mg/Kg intravenously as a bolus and then 0.2 mg/Kg/min as a continous infusion. The third group received berberine only after the appearance of VEA in a frequency of 50% of more of all systoles.
Moreover, the effects of intravenous bolus injection of berberine (0.4 to 1 mg/Kg) was studied (in comparison to dextrose 5% injection).

Mongrel dogs [3] = assay: Protocol HV: acute left ventricular failure by coronary microsphere embolization, closed chest; type: in vivo; conditions: ouabain 0.03 mg/kg during 30 minutes
Method: - Experiments were carried out in 21 mongrel dogs of either sex with body weight between 19 and 39 kg. Anesthesia was induced with sodium pentobarbital, 25 mg/kg of body weight intravenously, and small supplementary doses were given as necessary to maintain a constant level of anesthesia. The dogs were placed in the left lateral position and ventilation was maintained through a cuffed endotracheal tube with a volume-controlled respirator (Harvard Apparatus Co., Millis, Massachusetts). Polyethylene cannuleae were placed into the jugular and femoral veins for intravenous infusions and drug adminstration. Electrocardiograms (lead aVF) were monitored continuously throughout the experiments.
A polyethylene cannula was introduced into the aorta through the left carotid artery to record arterial pressure. (Stantham P23 ID transducer, Stantham Instruments, Inc. Oxnard, California). A Millar microtip transducer catheter (Millar Instruments, Inc., Houston, Texas) was introduced into the left ventricular cavity through the femoral artery to measure left ventricular pressures. For adjustment of zero level, left ventricular pressure was also measured through the fluid-filled lumen in the Millar catheter (Statham P23 ID transducer). The maximal rate of rise of left ventricular pressure, LV dP/dt, was recorded by means of a differentiator. All these parameters were recorded continuously on a polygraph (Gould 2800, Gould Instruments, Cleveland, Ohio). Cardiac output was determined by the thermodilution technique, using a thermistor catheter in the pulmonary artery and calculated by a cardiac output computer (Elecath, Electro- catheter Corp., Rahway, New Jersey). The coefficient of variation for duplicate CO measurements was 5%. In addition to the parameters directly obtained, total peripheral vascular resistance was calculated from the ratio of […] and cardiac output. Stroke volume was calculated by dividing cardiac output by heart rate. Heparin (Invendex) (5000 IU) was administered to avoid clotting of the catheters.
To induce acute left vetricular failure, initially the left main coronary artery was catheterized with a Judkin coronary artery catheter (7F, ISCI Cardiology and Radiology Products, Billerica, Massachusetts) under fluoroscopic control. It was introduced through a femoral artery, and polystyrene microspheres (3M Company, St. Paul, Minnesota) with a diameter of 52. 5 ± 4.0 µm (mean±SD) were injected into the coronary artery. The microspheres were used in a concentration of 1 mg (i.e., 12,000) per ml saline. The first dose of microsphere solution was 0.5 mi/kg body weight, and all subsequent doses were 0.25 ml/kg body weight, administered every 5 minutes. Administration of microspheres was discontinued when LV/dP/dt had been reduced by 30% or more when measured 4 minutes after the last dose. All dogs received prophylactic antiarrhythmic treatment with intravenous lidocaine, 1.5 mg/kg body weight as a bolus 20 min after the end of embolization, followed by a continuous infusion of […].
Forty-five minutes were allowed to elapse to verify the stability of the preparation. If Lv dP/dt or left ventricular end diastolic pressure had changed by 20% or more between 30 and 45 minutes after embolization, the dogs were excluded from this study and not randomized. Forty-five minutes after the end of embolization, the dogs were assigned randomly to three groups: a) Berberine-treated group, 0.2 mg/kg/ min, dissolved in 60 ml of a solution of 5% dextrose in water administered in a constant infusion during 30 minutes; b) ouabain-treated group, 0.03 mg/kg was administered in 60 ml of a 5% solution of dextrose in water during 30 minutes; and c) Control group, administration of 60 ml of a 5% solution of dextrose in water during 30 min. […]

[4] = test system: anesthetized closed chest dogs; assay: Association of ouabain and berberine on contractility (LV dP/dt), constant systolic pressure; type: in vivo; conditions: ouabain 0.03 mg/Kg i.v. bolus
Method: In anesthetized closed chest dogs the systolic arterial pressure was maintained constant with a reservoir full of heparinized blood (as in protocol "M" and "Z" described above) and a "pigtail" and Millar catheter were introduced into the left ventricular cavity (as in protocol "Z" and "HV", described above). All data was recorded on 8 channel polygraph (Gould Instruments) with a paper speed of 200 mm/s when necessary and at 2 mm/s constantly.

dog = assay: Protocol M simile: high or repetitive infusions in single dogs; type: in vivo
Method: It is noted that the dP/dt increased by 350% after the eighth dose and dF/dt by 450%.
In one dog using protocol M simile, 240 mg/Kg of berberine HCI was administered and dP/dt increased by 75%, aortic flow by 67%, heart rate fell from 150 to 114 beats/min., diastolic aortic pressure fell from 92 to 67 mmHg, and left atrial pressure fell from 8.5 to 7.5 mmHg.
When this type of experiment was repeated with tetrahydropalmatine, a first dose of 3.5 mg/Kg was given without maintaining the pressure constant and arterial pressure fell from 142/115 to 118/90 mmHg. When the second infusion was given with constant pressure, dP/dt increased by 17%.

Mongrel dogs [5] = assay: Protocol Z: continuous 35 minute infusion in anesthetized open-chest dogs, constant left ventricular pressure; type: in vivo
Method: Mongrel dogs weighing between 15 and 25 kg were anesthetized with intravenous sodium thiamylal (20 mg/kg initially with additional doses given as needed). The dogs were intubated endotracheally, and respiration was maintained by a Harvard respirator. The chest was then opened in the fourth left intercostal space and the heart suspended temporarily in a pericardial cradle.
Aortic pressures were recorded through a polyethylene cannula introduced through the carotid artery (Statham P23 Db pressure transducer) and electrocardiogram (lead aVF) were recorded throughout the experiment on a polygraph (Gould Instruments). Another polyethylene cannula was placed in the left atrium for measurement of atrial pressure (Statham P23 Db pressure transducer). An electromagnetic flowmeter (Biotonix Laboratories) was placed around the ascending aorta and the aortic flow was recorded on a polygraph. Two catheters were inserted into the left ventricle through a femoral artery.
The first ("pigtail") served as a reference, while the second (Millar microtip transducer catheter) was connected through a Millar transducer (Millar Instruments, Houston, Texas) to the polygraph, where both left ventricular pressure curves were recorded simultaneously. The left ventricular end diastolic pressure was recorded separately through a Millar catheter. The first derivative of the left ventricular pressure (dP/dt) was obtained by electronic differentiation of the left ventricular pulse recorded through the Millar catheter.
A reservoir of blood was connected with the femoral artery in order to maintain constant left ventricular pressure during the experiment. In this protocol, similarly to protocol M, systemic arterial pressure was maintained constant in order to have accurate measurements of dP/dt which represent well left ventricular contractility when the systolic pressure is maintained constant. However, calculated total peripheral resistance will be higher (an underestimation of the fall). After stabilization of hemodynamics as reflected by continuously monitored parameters for 15 minutes, the substances to be studied were infused intravenously using a Harvard infusion pump. Registrations were made every 5 minutes at a paper speed of 200 mm/second, while all the parameters were recorded constantly at a speed of 2 mm/second. The dogs were randomly assigned to several groups: • Group a) Control - in these dogs a solution of 5% dextrose in water was infused in the same quantity as in the berberine treated animals (n = 7).
In all berberine, berberrubine coreximine and tetrahydropalmatine groiups the compounds were infused at constant rate for 35 minutes and the data analyzed at 5 minute intervals. • Group b) Berberine 0.7 mg/Kg/min (n = 10). • Group c) Berberine 0.2 mg/Kg/min (n = 7). • Group d) Berberine 0.02 mg/Kg/min (n = 7). • Group e) Berberrubine 0.2 mg/Kg/min (n = 7). • Group f) Tetrahydropalmatine 0.2 mg/Kg/min (n = 4). • Group g) Coreximine 0.2 mg/Kg/min (n = 8).
Therefore, group b, c and d were used to analyze the various effects of continuous infusion of berberine and its dose response and groups e and f and g used to examine the effects of these three other proberberines. Moreover, their effects were compared to the berberine treated dogs with the same dose (i.e. Group c).

COc1ccc2cc3[n+](cc2c1OC)CCc1cc2c(cc1-3)OCO2 [berberine (S04), berberine]
concentrate in the liver (in vivo; 15 min): 0 1l9/g | concentrate in the liver (in vivo; 90 min): 6 1l9/g | concentrate in the liver (in vivo; 6 h): 2 1l9/g | concentration at 15 min (in vivo; concentrate in the lungs): 0.001 ng/g | concentration at 90 min (in vivo; concentrate in the lungs): 0.001 ng/g | concentration at 6 h (in vivo; concentrate in the lungs): 0.003 ng/g

CC(C)NCC(O)c1ccc(O)c(O)c1 (centres unmarked) [isoproterenol, reference compound]
epicardial ST segment elevations (dogs; after coronary artery occlusion): increased | mycardial oxygen consumption (MV02) (dogs; non-failing heart, dose that increases LV dP/dt similarly): significantly augmented

C[C@@H]1O[C@@H](O[C@H]2C[C@@H](O)[C@]3(CO)[C@H]4[C@H](O)C[C@]5(C)[C@@H](C6=CC(=O)OC6)CC[C@]5(O)[C@@H]4CC[C@]3(O)C2)[C@H](O)[C@H](O)[C@H]1O [ouabain, reference compound]
flow in the descending aorta ([1]; after ouabain 0.03 mg/Kg i.v. bolus, from 1195 ± 89): 1018 ± 93 mL/min | diastolic aortic pressure ([1]; ouabain 0.03 mg/Kg i.v. bolus): did not change significantly | increase of calculated peripheral resistance ([1]; ouabain 0.03 mg/Kg i.v. bolus): 18% | decrease of flow in the descending aorta ([1]; ouabain 0.03 mg/Kg i.v. bolus, 11 dogs, after the 90 minute experiments): 15% | dose of ouabain to provoke VT ([2]; control situation, ouabain alone): 0.04 mg/kg | amount of ouabain that provoked VT ([2]; controls, ouabain alone): 0.048 mg/kg | hemodynamic parameters from before to 30 minutes after the start of drug administration (Mongrel dogs [3]): did not change any of the hemodynamic parameters | increase in dP/dt, of the initial value of peak LV dP/dt ([4]; 5 minutes): 17±2% | increase in dP/dt, of the initial value of peak LV dP/dt ([4]; 10 minutes): 24±3% | increase in dP/dt, of the initial value of peak LV dP/dt ([4]; 15 minutes): 34±4% | increase in dP/dt, of the initial value of peak LV dP/dt ([4]; 20 minutes): 36±4% | increase in dP/dt, of the initial value of peak LV dP/dt ([4]; 25 minutes): 44±6% | increase in dP/dt, of the initial value of peak LV dP/dt ([4]; 30 minutes): 49±7%

COc1cc2c(cc1OC)[C@@H]1Cc3ccc(OC)c(OC)c3CN1CC2 [tetrahydropalmatine]
arterial pressure (dog; first dose 3.5 mg/Kg, pressure not held constant, from 142/115): 118/90 | increase of dP/dt (dog; second infusion, constant pressure): 17% | reduction of calculated peripheral resistance (Mongrel dogs [5]; 0.2 mg/Kg/min): over 30% | fall of heart rate (HR) (Mongrel dogs [5]; 0.2 mg/Kg/min (Table XIII)): 5.5%

digitalis [reference compound]
rise of diastolic pressure ([2]; 10 minutes): 31±9% | rise of diastolic pressure ([2]; 20 minutes): 16±11% | rise of diastolic pressure ([2]; 30 minutes): 34±15% | rise of diastolic pressure ([2]; 60 minutes): 16±7%
